Experimental data as given in patent publication US9512169B2, “3-substituted estra-1,3,5(10),16-tetraene derivatives, methods for the production thereof, pharmaceutical preparations containing same, and use thereof for the production of medicaments” (BAYER PHARMA AKTIENGESELLSCHAFT, priority 2012, dated 2016).
“And” between values parts separate entries of the source, which are not always exact repeats. Identical values can stand only once.

Key:
[1] = target: T1, AKR1C3 (Homo sapiens (Human), UniProt P42330); experiment: AKR1C3 enzyme inhibition assay (Coumberone to Coumberol fluorescence); type: biochemical; conditions: recombinant human AKR1C3, 15 min pre-incubation, 90 min at 22° C.; repeated lines = two experimental determinations
Experimental: The AKR1C3-inhibitory activity of the substances of the present invention was measured in the AKR1C3 assay described in the paragraphs below.
Essentially, the enzyme activity is measured by quantification of the Coumberol from Coumberone (Halim, M., Yee, D. J., and Sames, D., J. AM. CHEM. SOC. 130, 14123-14128 (2008) and Yee, D. J., Balsanek, V., Bauman, D. R., Penning, T. M., and Sames, D., Proc. Natl. Acad. Sci. USA 103, 13304-13309 (2006)). In this test, the increase of the highly fluorescent Coumberol by NADPH- (nicotinamide adenine dinucleotide phosphate)-dependent reduction of the non-fluorescent Coumberone by AKR1C3 can be determined.
The enzyme used was recombinant human AKR1C3 (Aldo-keto reductase family 1 member C3) (GenBank Accession No. NM_003739). This was expressed in E. coli as GST (glutathione S transferase) fusion protein and purified by glutathione Sepharose affinity chromatography. The GST was removed by digestion with thrombin and subsequent size exclusion chromatography (Dufort, I., Rheault, P., Huang, X F., Soucy, P., and Luu-The, V., Endocrinology 140, 568-574 (1999)).
For the assay, 50 nl of a 100-fold concentrated solution of the test substance in DMSO were pipetted into a black low-volume 384-well microtiter plate (Greiner Bio-One, Frickenhausen, Germany), 2.0 μl of a solution of AKR1C3 in assay buffer [50 mM potassium phosphate buffer pH 7, 1 mM DTT, 0.0022% (w/v) Pluronic F-127, 0.01% BSA (w/v) and protease inhibitor cocktail (Complete, EDTA-free Protease Inhibitor Cocktail from Roche)] were added and the mixture was incubated for 15 min to allow pre-binding of the substances to the enzyme prior to the enzyme reaction. The enzyme reaction was then started by addition of 3 μl of a solution of NADPH (16.7 μM→final concentration in 5 μl of assay volume is 10 μM) and Coumberone (0.5 μM→final concentration in 5 μl of assay volume is 0.3 μM) in assay buffer, and the resulting mixture was incubated at 22° C. for the reaction time of 90 min. The concentration of the AKR1C3 was adapted to the respective activity of the enzyme preparation and adjusted such that the assay was carried out in the linear range. Typical concentrations were in the region of 1 nM. The reaction was stopped by addition of 5 μl of a stop solution consisting of the inhibitor EM-1404 [F. Labrie et al. U.S. Pat. No. 6,541,463, 2003] (2 μM→final concentration in […] is 1 μM). The fluorescence of the Coumberole was then measured at 520 nm (excitation at 380 nm) using a suitable measuring instrument (Pherastar from BMG Labtechnologies). The intensity of the fluorescence was used as a measure of the amount of Coumberole formed and thus of the enzyme activity of AKR1C3. The data were normalized (enzyme reaction without inhibitor=0% inhibition; all other assay components, but no enzyme=100% inhibition).
As described, the pharmacological substances claimed were examined for their inhibitory activity on the AKR1C3 enzyme (see Table 1). The compounds claimed show a strong inhibition of AKR1C3 in vitro (IC50 values <200 nM) and in most cases even IC50 values <50 nM.

[2] = target: T1, AKR1C3; experiment: AKR1C3 inhibition in a cell-based system (HEK293 cells transfected with AKR1C3 expression plasmid, coumberol fluorescence); conditions: HEK293 cells transfected with AKR1C3, incubation overnight; repeated lines = independent determinations; read-out: Cellular AKR1C3 inhibition IC50
Experimental: The inhibition of AKR1C3 by the substances described in the present invention was measured in a cell-based assay using […] as substrate for the AKR1C3 (Halim, M., Yee, D. J., and Sames, D., J. AM. CHEM. SOC. 130, 14123-14128 (2008) and Yee, D. J., Balsanek, V., Bauman, D. R., Penning, T. M., and Sames, D., Proc. Natl. Acad. Sci. USA 103, 13304-13309 (2006)) (cf. Example 20).
The cell system used were HEK293 cells (ATCC, USA) (cell culture medium: DMEM, 1.5 g glucose, 10% FCS, PSG). The cells were transfected in an AKR1C3 expression plasmid (pCMV6-AC-AKR1C3, GenBank Accession No. NM_003739.4) overnight (X-tremeGENE HP, Roche). The next morning, the cells were sown in black 96well cell culture plates at a cell density of 40000 cells/well (Greiner Bio-One, Frickenhausen, Germany). After 7 h, the cells were incubated with the test substances (dissolved in 100× concentration in DMSO, final concentration between 10^−11M and 10^−5M) and […] (dissolved in cell culture medium, final concentration 5×10^−6M) overnight. The next morning, the fluorescence of coumberol was measured at 535 nm (excitation at 355 nm) using a suitable measuring instrument (Mithras, from Berthold). The fluorescence intensity was used as a measure of the amount of coumberol formed and thus of the enzyme activity of AKR1C3. The data were normalized (transfected cells without inhibitor, only DMSO=0% inhibition; transfected cells, 10 μM inhibitor EM-1404 [F. Labrie et al. U.S. Pat. No. 6,541,463, 2003]=100% inhibition), and the IC50 values were calculated using a 4-parameter fit.
In the cell-based assay described above, the pharmacological substances claimed were examined for their inhibitory activity on the AKR1C3 enzyme (see Table 2).

[3] = target: T1, AKR1C3; experiment: AKR1C3 binding by isothermal titration calorimetry; design: exothermal binding enthalpy: unit not given here; conditions: ITC, 25° C., PBS buffer
Experimental: Binding of Example compound 1 to the AKR1C3 enzyme was measured by isothermal titration calorimetry. The degree of affinity of a given compound can be stated using the dissociation constant (KD value). Human AKR1C3 enzyme was prepared as described in Example 20. For ITC experiments, human AKR1C3 protein was transferred by gel permeation into a PBS buffer consisting of 137 mM NaCl, 2.7 mM KCl, 10 mM Na2HPO4, 2 mM KH2PO4 and 1 mM tris(2-carboxyethyl)phosphine hydrochloride. The compounds were dissolved in 100% DMSO at a concentration of 10 mM and then diluted with PBS buffer. Isothermal titration calorimetry experiments (ITC experiments) were carried out using an ITC200 titration calorimeter (GE Healthcare, Northampton, Mass., USA) at a temperature of 25° C. The change in enthalpy resulting from the injection of the protein was determined by integration of the calorimetric signal. The data were analyzed with Origin 7.0 (GE Healthcare, Northampton, Mass., USA). Heat of dilution values were determined using the last injection of the titration in question and subtracted prior to curve fitting. The protein concentration in the injection syringe was in the range from 80 to 120 μM, and the concentration of the compound to be measured was in the range from 5 to 20 μM.

T1 sequence (P42330 whole entry): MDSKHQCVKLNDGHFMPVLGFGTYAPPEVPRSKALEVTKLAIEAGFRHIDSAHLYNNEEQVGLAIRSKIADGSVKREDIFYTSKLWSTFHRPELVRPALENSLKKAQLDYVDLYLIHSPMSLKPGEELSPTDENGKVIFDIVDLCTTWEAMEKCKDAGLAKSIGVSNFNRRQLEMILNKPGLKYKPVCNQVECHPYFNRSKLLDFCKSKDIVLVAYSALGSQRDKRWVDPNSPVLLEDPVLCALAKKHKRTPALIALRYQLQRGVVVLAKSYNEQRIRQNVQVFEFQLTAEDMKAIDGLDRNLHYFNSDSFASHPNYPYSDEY

Question: With C[C@]12CC[C@@H]3c4ccc(CCC(=O)O)cc4CC[C@H]3[C@@H]1CC=C2c1cncc(F)c1 [Example 1, 3-[17-(5-Fluoropyridin-3-yl)estra-1,3,5(10),16-tetraen-3-yl]propanoic acid] as the compound, how does the IC50 [1] read?
Answer: Its IC50 is 0.008 µM and 0.0076 µM.

Question: What about the IC50 [2] of the same compound?
Answer: Its IC50 is 0.04 µM and 0.052 µM and 0.157 µM.

Question: What about the exothermal binding enthalpy [3] of the same compound?
Answer: The exothermal binding enthalpy was −1500.

Question: What about the Kd ([3]; read-out: KD value (dissociation constant)) of the same compound?
Answer: Its Kd is 0.23 µM.
